{
  "source": "paper PMC6934184",
  "about": "“Selective DNA-PKcs inhibition extends the therapeutic index of localized radiotherapy and chemotherapy” (The Journal of Clinical Investigation, 2019)",
  "target": "T1, FGFR4 (Homo sapiens, UniProt P22455)",
  "T1 construct": "purchased Thermo Fisher Scientific (Life Technologies) SelectScreen",
  "T1 sequence (P22455 22-802)": "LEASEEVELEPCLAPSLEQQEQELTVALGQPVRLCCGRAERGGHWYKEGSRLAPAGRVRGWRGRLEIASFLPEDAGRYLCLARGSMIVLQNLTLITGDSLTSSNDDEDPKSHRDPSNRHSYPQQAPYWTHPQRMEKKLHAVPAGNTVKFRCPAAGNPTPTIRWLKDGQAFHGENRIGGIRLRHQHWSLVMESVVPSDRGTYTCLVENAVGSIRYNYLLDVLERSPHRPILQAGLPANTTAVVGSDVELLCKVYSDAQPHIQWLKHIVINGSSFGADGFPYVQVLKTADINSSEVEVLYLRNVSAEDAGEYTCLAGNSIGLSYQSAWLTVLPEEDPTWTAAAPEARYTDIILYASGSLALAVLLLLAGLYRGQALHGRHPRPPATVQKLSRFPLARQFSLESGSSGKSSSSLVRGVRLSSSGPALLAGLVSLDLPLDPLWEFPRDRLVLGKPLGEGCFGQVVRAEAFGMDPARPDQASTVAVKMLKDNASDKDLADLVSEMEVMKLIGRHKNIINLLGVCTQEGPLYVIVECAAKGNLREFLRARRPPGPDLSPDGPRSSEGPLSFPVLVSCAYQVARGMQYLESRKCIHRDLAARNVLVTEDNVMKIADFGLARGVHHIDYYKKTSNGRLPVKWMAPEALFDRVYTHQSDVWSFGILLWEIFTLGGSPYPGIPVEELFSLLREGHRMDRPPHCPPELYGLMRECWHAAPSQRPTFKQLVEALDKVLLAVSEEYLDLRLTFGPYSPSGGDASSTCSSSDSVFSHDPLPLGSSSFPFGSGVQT",
  "assay": "SelectScreen Z'LYTE",
  "type": "biochemical",
  "in_short": "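NU5455 was profiled across the SelectScreen Broad panel of kinase activity and binding assays. Z'LYTE reactions such as CSF1R ran at apparent Km ATP, while the Adapta CAMK1 assay used ATP listed as 10. Values are given as percent.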",
  "data": [
    {"smiles": "CN(C(=O)CN1CCOCC1)c1ccc2sc3c(-c4cccc5c(=O)cc(N6CC7CCC(C6)O7)oc45)cccc3c2c1", "note": "[NU5455]", "values": [
      {"measurement": "inhibition at 1 µM", "value": -3.1, "unit": "%"}
    ]}
  ]
}
